Measurements reported in patent US9567380B1, “Microtubule organizing center (MTOC)-inactivating peptides” (THE RESEARCH FOUNDATION FOR THE STATE UNIVERSITY OF NEW YORK, priority 2015, dated 2017).
“Also recorded” adds a separate entry of the source. Ends that are not written are not given here.

Experiments:
human γ-TuRC = molecular target: T1, human γ-TuRC (Homo sapiens, UniProt P23258+Q9BSJ2); test: In vitro γ-TuRC microtubule nucleation assay; assay type: biochemical; settings: whole-cell extract from human breast cancer cells; final peptide concentration 60 nM
T1 construct: All other samples use whole-cell extract from human breast cancer cells; endogenous in cells; host or cells: human breast cancer cells (whole-cell extract)
T1 sequence (P23258 whole entry): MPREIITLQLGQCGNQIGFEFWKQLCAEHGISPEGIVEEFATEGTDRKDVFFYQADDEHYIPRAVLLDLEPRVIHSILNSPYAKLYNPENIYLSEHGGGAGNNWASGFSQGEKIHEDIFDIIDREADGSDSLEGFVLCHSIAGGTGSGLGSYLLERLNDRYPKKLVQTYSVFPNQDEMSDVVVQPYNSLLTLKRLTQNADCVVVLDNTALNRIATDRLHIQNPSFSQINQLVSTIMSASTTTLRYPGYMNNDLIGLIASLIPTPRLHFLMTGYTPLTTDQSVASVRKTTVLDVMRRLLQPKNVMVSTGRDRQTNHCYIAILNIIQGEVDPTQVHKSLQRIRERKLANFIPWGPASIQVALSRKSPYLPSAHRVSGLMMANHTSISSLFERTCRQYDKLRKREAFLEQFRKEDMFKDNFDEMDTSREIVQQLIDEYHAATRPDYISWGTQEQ
T1 sequence (Q9BSJ2 whole entry): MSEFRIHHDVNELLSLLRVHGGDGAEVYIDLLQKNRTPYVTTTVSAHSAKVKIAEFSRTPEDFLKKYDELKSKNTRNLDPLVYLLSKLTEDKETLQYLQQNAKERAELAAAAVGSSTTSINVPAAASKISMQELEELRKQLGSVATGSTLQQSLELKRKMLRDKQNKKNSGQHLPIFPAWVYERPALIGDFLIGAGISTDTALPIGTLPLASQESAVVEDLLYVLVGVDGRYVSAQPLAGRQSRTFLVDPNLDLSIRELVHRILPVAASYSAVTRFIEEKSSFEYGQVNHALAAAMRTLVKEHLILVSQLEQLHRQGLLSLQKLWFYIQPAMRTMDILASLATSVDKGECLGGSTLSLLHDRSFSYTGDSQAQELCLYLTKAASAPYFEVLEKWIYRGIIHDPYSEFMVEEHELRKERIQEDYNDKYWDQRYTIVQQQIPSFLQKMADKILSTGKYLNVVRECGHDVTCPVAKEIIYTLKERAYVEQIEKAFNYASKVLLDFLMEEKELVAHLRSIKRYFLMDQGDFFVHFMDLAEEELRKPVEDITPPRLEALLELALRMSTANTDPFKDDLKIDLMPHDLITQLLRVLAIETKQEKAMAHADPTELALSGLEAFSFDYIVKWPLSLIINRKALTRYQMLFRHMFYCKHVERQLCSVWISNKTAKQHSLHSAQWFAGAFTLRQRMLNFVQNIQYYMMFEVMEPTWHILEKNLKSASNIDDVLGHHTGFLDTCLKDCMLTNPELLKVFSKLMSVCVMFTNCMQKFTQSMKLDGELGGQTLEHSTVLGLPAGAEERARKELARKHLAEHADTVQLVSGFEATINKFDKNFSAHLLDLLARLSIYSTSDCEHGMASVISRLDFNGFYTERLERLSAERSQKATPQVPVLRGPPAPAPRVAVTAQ
Procedure: In vitro microtubule nucleation assays were performed in a total volume of 5 μL. That is, 3 μL for the sample and 2 μL of tubulin at a 1:5 ratio of Rhodamine:unlabeled tubulin (Cytoskeleton, Inc.). Total tubulin concentration was 3.75 μg/μL in 2.5× tubulin working buffer (2.5×BRB80: 200 mM PIPES, 2.5 mM MgCl2, 2.5 mM EGTA at pH 6.8 and 2.5 mM GTP). For whole cell extract nucleation analysis with peptide, 2 μL of whole cell extract was added with 1 μL of peptide at 300 nM for a final peptide concentration of 60 nM. This 3 μL combination was added first followed by tubulin working buffer. For samples with no peptide, the 5 μL final volume was comprised of 3 μL RIPA buffer and 2 μL of whole cell extract. The 5 μL reaction was combined on ice, quickly spun and returned to ice before incubating in a 37° C. water bath for 4 minutes. Sample incubation was staggered at 20 s intervals to allow for pipetting. After 4 minutes, 50 μL of 1% glutaraldehyde fixing solution was added and tubes were incubated at room temperature for 3 minutes. Samples were completed by addition of 1 mL 1×BRB80, inverting multiple times to mix. […] Images of multiple fields were collected and the average microtubule number per field was determined.

MDA-MB-231 cells = test: Mitotic arrest after live cell peptide transfection (Chariot) of MDA-MB-231 cells; assay type: cell-based, human
Procedure: (§1) MCF-7 and MDA-MB-231 (ATCC) cells were maintained in 25 cm^2 tissue culture treated Corning flasks (Sigma-Aldrich) in DMEM complete medium with Glutamax-1 and supplemented with 10% fetal bovine serum. MCF-7 DMEM complete medium was additionally supplemented with 0.01 mg/mL bovine insulin (Sigma-Aldrich). Flasks were maintained at 37° C. in 5% CO2, 95% air, and cells were passaged every 5-7 days using 1 mL TrypLE (Life Technologies).
(§2) For live cell peptide transfection we used the Chariot system (Active Motif) according to the manufacturer's instructions. Cells were seeded into 35 mm tissue culture-treated dishes containing coverslips and grown in complete medium to ˜60% confluency. 1 μg of Kinesin-14 Tail peptide PγTR (GenScript) was diluted in 100 μL 1×PBS on ice. 6 μL of 1/10 PBS-diluted Chariot reagent was further diluted into 100 μL sterile water on ice in a separate tube. Diluted peptide and diluted Chariot were combined and incubated at room temperature for 30 minutes to allow the Chariot-peptide complex to form. Following incubation, media was aspirated from cells, which were then washed once in 1×PBS. The entire 200 μL volume was added to cells in 400 μL serum-free media and gently rocked to ensure even delivery. Plates were returned to 37° C. for 1 hr. Next, DMEM complete growth medium was added to 2 mL without removing the peptide delivery solution (108 μM peptide in 2 mL). Cells were further incubated at 37° C. overnight and fixed after 24 hours.
Human cells were fixed on glass coverslips in −20° C. methanol for 10 minutes, washed with 1×PBS and permeabilized in 0.5% Triton X-100 for 20 minutes. Following further washes, cells were blocked for 30 minutes in 1% bovine serum albumin/knock out serum replacement (BSA/KOSR). […]
(§3) For statistical analysis of phenotypes, n values were chosen as number of cells per strain needed to ensure adequate power to detect significant outcomes. […] For cell cycle arrest by 1 μg transfection of PγTR, 12 fields at 200× were counted. […]

[1] = test system: human MCF-7 breast cancer cells; test: Mitotic arrest after live cell peptide transfection (Chariot) of MCF-7 cells; assay type: cell-based
Procedure: as §1, §2
Human cells were fixed on glass coverslips in −20° C. methanol for 10 minutes, washed with 1×PBS and permeabilized in 0.5% Triton X-100 for 20 minutes. Following further washes, cells were blocked for 30 minutes in 1% bovine serum albumin/knock out serum replacement (BSA/KOSR). For peptide localization to centrosomes, 1 μg/mL of peptide was applied after blocking and before primary antibody application. Antibodies used were primary mouse anti-γ-tubulin monoclonal (1:5,000; Sigma-Aldrich cat. T5326) or primary mouse anti-α-tubulin monoclonal DM1A (1:1,000; Santa Cruz Biotech cat. sc-32293), primary His-tag polyclonal antibody (1:1,000; Cell Signaling cat. 2365), secondary goat anti-mouse Alexa Fluor 488 IgG (1:1,000; Life Technologies cat. A-11001) and secondary goat anti-rabbit Texas Red (1:1,000; Life Technologies cat. T-6391). Antibodies were diluted in 1% BSA/KOSR antibody dilution buffer. […]
as §3

[2] = molecular target: human γ-TuRC (centrosome MTOC of human breast cancer cells) (human) (UniProt P23258); test: cell-based or functional assay
Sequence of human γ-TuRC (centrosome MTOC of human breast cancer cells) (human) (P23258 whole entry, chain 1 of 2): as the sequence (P23258 whole entry) above
Sequence of human γ-TuRC (centrosome MTOC of human breast cancer cells) (human) (Q9BSJ2 whole entry, chain 2 of 2, further chain): as the sequence (Q9BSJ2 whole entry) above

Substance: YSKFKESAAPQLKDLIGSGAEKDHEYSLQLQ (also: 6-His tag, end not given here) [PγTR, Kinesin-14 Pkl1 Tail peptide, γ-TuRC targeting and regulatory; used 6-His tagged]
- block of γ-TuRC microtubule nucleation (in words) (human γ-TuRC): potent inhibitor of nucleation; also recorded: blocks the γ-TuRC MTOC nucleation
- mitotic arrest (in words) (MDA-MB-231 cells; MDA-MB-231 (high aggressiveness), live cell transfection): can mitotically arrest both the MCF-7 low and MDA-MB-231 high aggressive cell lines with similar efficiency
- share of cells receiving peptide that were arrested in mitosis (MDA-MB-231 cells; MDA-MB-231, 24 h, value in brackets in FIG. 13G legend): 82%
- cells arrested in mitosis (MDA-MB-231 cells; MDA-MB-231, 24 h after transfection with 1 μg peptide, arrested peptide-positive cells as percentage of entire population, 12 fields at 200×): 22.6%
- mitotic arrest (in words) ([1]; MCF-7 (low aggressiveness), live cell transfection): can mitotically arrest both the MCF-7 low and MDA-MB-231 high aggressive cell lines with similar efficiency
- share of cells receiving peptide that were arrested in mitosis ([1]; MCF-7, 24 h, value in brackets in FIG. 13G legend): 90%
- cells arrested in mitosis ([1]; MCF-7, 24 h after transfection with 1 μg peptide, arrested peptide-positive cells as percentage of entire population, 12 fields at 200×): 39%
- spindle formation by α-tubulin staining ([1]; MCF-7 cells arrested by peptide, live cell transfection): No spindle formation

Substance: 6-His tagged Kinesin-14 Tail peptide PγTR (γ-TuRC targeting and regulatory peptide)
- cells arrested in mitosis 24 hours after transfection, MCF-7 [2]: 39%
- cells arrested in mitosis 24 hours after transfection, MDA-MB-231 [2]: 22.6%
